Laboratory results reported in article PMC5613217 (Biochemistry and Biophysics Reports, 2017).

Tests used:
MtbNei2 (Rv3297) [1] = molecular target: T1, MtbNei2 (Rv3297) (Mycobacterium tuberculosis, UniProt P9WNC1); assay: In vitro inhibition of Uracil DNA glycosylase activity of MtbNei2; assay type: biochemical; conditions: for Inhibition of Uracil DNA glycosylase activity (in words): 50-800 µM inhibitor, 80 nM MtbNei2
T1 sequence (P9WNC1 1-255): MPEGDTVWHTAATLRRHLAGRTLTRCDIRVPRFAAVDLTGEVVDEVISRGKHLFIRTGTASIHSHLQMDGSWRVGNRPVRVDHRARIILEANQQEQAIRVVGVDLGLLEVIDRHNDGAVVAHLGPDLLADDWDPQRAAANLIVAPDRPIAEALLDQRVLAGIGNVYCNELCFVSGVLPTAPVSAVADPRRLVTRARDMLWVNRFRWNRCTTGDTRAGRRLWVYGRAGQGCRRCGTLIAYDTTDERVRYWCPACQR

MtbNei2 (Rv3297) [2] = molecular target: T1, MtbNei2 (Rv3297); assay: In vitro inhibition of AP site cleavage; assay type: biochemical; conditions: for Inhibition of AP site cleavage activity (in words): 50-800 µM inhibitor, 80 nM MtbNei2

Row | SMILES | IC50 (MtbNei2 (Rv3297) [1]) [µM] | Inhibition of Uracil DNA glycosylase activity (in words) (MtbNei2 (Rv3297) [1]) | IC50 (MtbNei2 (Rv3297) [2]) [µM] | Inhibition of AP site cleavage activity (in words) (MtbNei2 (Rv3297) [2])
1 | COc1c2c(cc3c1[C@@H]1Oc4c(ccc(O)c4CC=C(C)C)[C@@H]1CO3)OC(C)(C)C=C2 [NSC250430, Gangetin] | 76.2 | good inhibition | 43.6 | good inhibition
2 | C[C@H]1Oc2cc3c(-c4c(O)cc(O)c5c(O)c6c(cc45)O[C@H](C)[C@@H](C)C6=O)c(O)cc(O)c3c(O)c2C(=O)[C@@H]1C [NSC345647, Chaetochromin] | 92.7 | good inhibition | 84.7 | good inhibition
